Data from patent publication US11453666B2, “Autotaxin inhibitory compounds” (Cancer Research Technology Limited, priority 2015, dated 2022).
pIC50: −log10 of the molar value. Where two headings read alike, the source gives them in different places.

Molecular target: human recombinant ATX (Homo sapiens, UniProt Q13822)
Experiment: Autotaxin (ATX) activity Quanta Red assay
Format: biochemical
Details: read-out: Activity (ATX activity, Quanta Red assay; IC50)
Experimental: The reaction was stopped after 2 hours with a 20 μL addition of Quanta Red Stop solution (1:20 dilution in distilled water). The above-described mixture with DMSO alone was used as a positive control whereas that with DMSO alone without ATX was taken as a negative control.
Fluorescence was determined in a BMG Labtech Pherastar plus plate reader ([…]). Data were analysed using Excel fit software. IC50 values were determined in duplicate.

[1] = human recombinant ATX 0.8 μg/mL, 2 hours at room temperature, IC50 determined in duplicate

pIC50	Compound	pIC50 [1]
	C[C@H](NC(=O)C[S+]([O-])c1nc2cccnc2n1Cc1ccc(OC(F)(F)F)cc1)c1ccc(F)cc1 (single isomer, unassigned) [Example 148]	8.00
	C[C@H](NC(=O)C[S+]([O-])c1nc2cccnc2n1Cc1ccc(OC(F)(F)F)cc1)c1ccc(F)cc1 (single isomer, unassigned) [Example 149]	6.75
	C[C@H](NC(=O)CCc1nc2cccnc2n1Cc1ccccc1)c1ccccc1 [Example 1, 3-(3-benzyl-3H-imidazo[4,5-b]pyridin-2-yl)-N—((S)-1-phenyl-ethyl)-propionamide]	7.17
	O=C(CCc1nc2cccnc2n1Cc1ccccc1)NCc1cccs1 [Example 3, 3-(3-Benzyl-3H-imidazo[4,5-b]pyridin-2-yl)-N-thiophen-2-ylmethyl-propionamide]	6.07
	C[C@@H](NC(=O)CCc1nc2cccnc2n1Cc1ccccc1)c1ccccc1 [Example 4, 3-(3-Benzyl-3H-imidazo[4,5-b]pyridin-2-yl)-N-((R)-1-phenyl-ethyl)-propionamide]	5.58
6.07	Cc1ccccc1CNC(=O)CCc1nc2cccnc2n1Cc1ccccc1 [Example 5, 3-(3-Benzyl-3H-imidazo[4,5-b]pyridin-2-yl)-N-(2-methyl-benzyl)-propionamide]	
6.32	O=C(CCc1nc2cccnc2n1Cc1cccc(OC(F)(F)F)c1)NCc1cccc(OC(F)(F)F)c1 [Example 6, N-(3-Trifluoromethoxy-benzyl)-3-[3-(3-trifluoromethoxy-benzyl)-3H-imidazo[4,5-b]pyridin-2-yl]-propionamide]	
9.00	O=C(CCc1nc2cccnc2n1Cc1ccc(OC(F)(F)F)cc1)N[C@@H](CO)c1ccccc1 [Example 7, N-((R)-2-Hydroxy-1-phenyl-ethyl)-3-[3-(4-trifluoromethoxy-benzyl)-3H-imidazo[4,5-b]pyridin-2-yl]-propionamide]	
9.00	O=C(CCc1nc2cccnc2n1Cc1ccc(OC(F)(F)F)cc1)N[C@@H]1c2ccccc2C[C@@H]1O [Example 8, N-((1R,2S)-2-Hydroxy-indan-1-yl)-3-[3-(4-trifluoromethoxy-benzyl)-3H-imidazo[4,5-b]pyridin-2-yl]-propionamide]	
9.00	O=C(CCc1nc2cccnc2n1Cc1ccc(OC(F)(F)F)cc1)N[C@@H]1c2ccccc2C[C@H]1O [Example 9, N-((1R,2R)-2-Hydroxy-indan-1-yl)-3-[3-(4-trifluoromethoxy-benzyl)-3H-imidazo[4,5-b]pyridin-2-yl]-propionamide]	
8.70	CN(C)CCCOc1ccc(CNC(=O)CCc2nc3cccnc3n2Cc2ccc(OC(F)(F)F)cc2)cc1 [Example 10, N-[4-(3-Dimethylamino-propoxy)-benzyl]-3-[3-(4-trifluoromethoxy-benzyl)-3H-imidazo[4,5-b]pyridin-2-yl]-propionamide]	
	C[C@H](NC(=O)CCc1nc2cccnc2n1Cc1ccc(C(F)(F)F)cc1)c1ccc(Cl)cc1 [Example 12, N-[(S)-1-(4-Chloro-phenyl)-ethyl]-3-[3-(4-trifluoromethyl-benzyl)-3H-imidazo[4,5-b]pyridin-2-yl]-propionamide]	8.70
8.70	C[C@H](NC(=O)CCc1nc2cccnc2n1Cc1ccc(OC(F)(F)F)cc1)c1ccc(F)cc1 [Example 13, N-[(S)-1-(4-Fluoro-phenyl)-ethyl]-3-[3-(4-trifluoromethoxy-benzyl)-3H-imidazo[4,5-b]pyridin-2-yl]-propionamide]	
8.70	COc1ccc(CNC(=O)CCc2nc3cccnc3n2Cc2ccc(OC(F)(F)F)cc2)cc1 [Example 14, N-(4-Methoxy-benzyl)-3-[3-(4-trifluoromethoxy-benzyl)-3H-imidazo[4,5-b]pyridin-2-yl]-propionamide]	
8.70	O=C(CCc1nc2cccnc2n1Cc1ccc(OC(F)(F)F)cc1)NC(CO)c1ccc(F)cc1 (stereo not drawn) [Example 15, N-[1-(4-Fluoro-phenyl)-2-hydroxy-ethyl]-3-[3-(4-trifluoromethoxy-benzyl)-3H-imidazo[4,5-b]pyridin-2-yl]-propionamide]	
